The values below come from US10239882B2, “Substituted 5-methyl-[1,2,4]triazolo[1,5-a]pyrimidin-2-amine compounds as PDE2 inhibitors” (DART NEUROSCIENCE (CAYMAN) LTD., priority 2014, dated 2019).

This assay has as its target FLAG-tagged PDE2A1 (amino acids 2-941) (Homo sapiens (Human), UniProt O00408). The assay can be described thus: IMAP TR-FRET PDE2A enzymatic assay. In kind it is biochemical. The following applies: 200 nM FAM-cAMP substrate, 11-point half-log dose-response; for IC50: read-out: PDE2 (PIC50). An excerpt: An IMAP TR-FRET-based phosphodiesterase assay was developed using the PDE2A isoform. IMAP technology is based on high-affinity binding of phosphate by immobilized metal (MIII) coordination complexes on nanoparticles. The IMAP “binding reagent” recognizes phosphate groups on AMP or GMP generated from cAMP or cGMP in a PDE reaction. Cyclic nucleotides that carry a phosphodiester bond and not a free phosphate are not recognized by the binding reagent. The time resolved fluorescence resonance energy transfer (TR-FRET) is afforded by a Terbium (Tb)-Donor pre-bound to the nanoparticles. FRET occurs when the fluorescent-labeled AMP or GMP product of a PDE reaction binds and comes into close proximity to the Tb-Donor complex. Due to the long lifetime of Tb fluorescence, detection can be run in time-resolved mode to reduce or eliminate interference from auto-fluorescent compounds.
The IMAP TR-FRET PDE2A assay was performed in 1536-well white plates. A total of 250 pg per well of FLAG-tagged PDE2A1 (amino acids 2-941) was dispensed in 2.5 μL IMAP assay buffer consisting of 10 mM Tris pH 7.2, 10 mM MgCl2, 1 mM DTT, and 0.1% fatty acid free BSA. 30 nL of compound was then added from 1 mM stocks in DMSO using a Kalypsys Pintool. Plates were incubated for 5 min at room temperature before dispensing 1.5 μL of 533 nM FAM-cAMP substrate for a final concentration of 200 nM. Following a brief centrifugation, plates were incubated for 30 min at room temperature. The assay was terminated by adding 5 μL IMAP binding reagent Tb complex to each well which was prepared according to manufacturer's recommendations (Molecular Devices). Plates were incubated an additional 90 minutes at room temperature and read on a Viewlux plate reader. All compounds were solvated at a concentration of 10 mM in DMSO and tested in 11-point half-log dose-response. Curve fitting and IC50 values were determined using a standard four parameter fit.
On the technique in general: TR-FRET usually uses a lanthanide donor and a delayed reading to cut background.

Chain of FLAG-tagged PDE2A1 (amino acids 2-941) (O00408 2-941): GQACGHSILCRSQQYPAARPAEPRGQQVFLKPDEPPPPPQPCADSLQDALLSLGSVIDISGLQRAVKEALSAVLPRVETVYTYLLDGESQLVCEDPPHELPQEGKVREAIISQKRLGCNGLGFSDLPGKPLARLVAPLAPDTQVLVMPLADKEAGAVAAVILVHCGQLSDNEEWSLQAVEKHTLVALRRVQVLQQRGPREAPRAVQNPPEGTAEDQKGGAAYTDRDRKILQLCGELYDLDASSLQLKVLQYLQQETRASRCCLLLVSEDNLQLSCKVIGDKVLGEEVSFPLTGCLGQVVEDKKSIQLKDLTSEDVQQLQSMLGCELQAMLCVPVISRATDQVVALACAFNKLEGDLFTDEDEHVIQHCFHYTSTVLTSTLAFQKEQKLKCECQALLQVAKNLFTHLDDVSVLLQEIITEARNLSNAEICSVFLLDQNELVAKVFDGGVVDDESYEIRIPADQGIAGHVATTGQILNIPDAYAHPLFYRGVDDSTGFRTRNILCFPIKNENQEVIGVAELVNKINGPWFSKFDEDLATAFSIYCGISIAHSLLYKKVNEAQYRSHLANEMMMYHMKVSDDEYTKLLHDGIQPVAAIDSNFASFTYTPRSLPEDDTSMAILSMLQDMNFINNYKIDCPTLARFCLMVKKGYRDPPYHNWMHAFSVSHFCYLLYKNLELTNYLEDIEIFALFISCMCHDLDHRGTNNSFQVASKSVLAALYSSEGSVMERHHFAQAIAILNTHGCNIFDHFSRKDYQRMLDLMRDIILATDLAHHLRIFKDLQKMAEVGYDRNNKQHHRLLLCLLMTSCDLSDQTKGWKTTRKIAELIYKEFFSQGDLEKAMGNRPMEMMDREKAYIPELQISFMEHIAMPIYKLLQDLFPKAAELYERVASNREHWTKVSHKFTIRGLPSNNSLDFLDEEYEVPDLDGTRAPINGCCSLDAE

Turning to `COc1ccc(CNc2nc3nc(C)cc(C4CCOCC4)n3n2)cc1` [Example 1, N-(4-Methoxybenzyl)-5-methyl-7-(tetrahydro-2H-pyran-4-yl)-[1,2,4]triazolo[1,5-a]pyrimidin-2-amine], the IC50 lay in the range of 100 to 1000 nM.

Consider `Cc1cc(C2CC2)n2nc(NCc3ccc4c(c3)CCO4)nc2n1` [Example 2, 7-Cyclopropyl-N-((2,3-dihydrobenzofuran-5-yl)methyl)-5-methyl-[1,2,4]triazolo[1,5-a]pyrimidin-2-amine], for which the IC50 was 1000 to 10000 nM.

In the case of `Cc1cc(C2CC2)n2nc(NCc3ccc4c(c3)OCC4)nc2n1` [Example 3, 7-Cyclopropyl-N-((2,3-dihydrobenzofuran-6-yl)methyl)-5-methyl-[1,2,4]triazolo[1,5-a]pyrimidin-2-amine], the IC50 lay within 1000 to 10000 nM.

Consider `COc1ccc(CNc2nc3nc(C)cc(C4CC4)n3n2)cc1` [Example 4, 7-Cyclopropyl-N-(4-methoxybenzyl)-5-methyl-[1,2,4]triazolo[1,5-a]pyrimidin-2-amine], for which the IC50 was in the range of 1000 to 10000 nM.

On to `Cc1cc(C2CCCC2)n2nc(NCc3ccc4c(c3)CCC4)nc2n1` [Example 5, 7-Cyclopentyl-N-((2,3-dihydro-1H-inden-5-yl)methyl)-5-methyl-[1,2,4]triazolo[1,5-a]pyrimidin-2-amine], for which the IC50 lay within 100 to 1000 nM.

Take `Cc1cc(C(C)C)n2nc(NCc3ccc4c(c3)CCC4)nc2n1` [Example 6, N-((2,3-Dihydro-1H-inden-5-yl)methyl)-7-isopropyl-5-methyl-[1,2,4]triazolo[1,5-a]pyrimidin-2-amine]: the IC50 was 100 to 1000 nM.

For `Cc1cc(C(C)C)n2nc(NCc3cccc(Cl)c3)nc2n1` [Example 7, N-(3-Chlorobenzyl)-7-isopropyl-5-methyl-[1,2,4]triazolo[1,5-a]pyrimidin-2-amine], the IC50 fell in the range of 1000 to 10000 nM.

Take `Cc1cc(C(C)C)n2nc(NCc3ccccc3)nc2n1` [Example 8, N-Benzyl-7-isopropyl-5-methyl-[1,2,4]triazolo[1,5-a]pyrimidin-2-amine]: the IC50 fell in the range of 1000 to 10000 nM.

Take `Cc1cc(C(C)(C)C)n2nc(NCc3cccc(Cl)c3)nc2n1` [Example 9, 7-(tert-Butyl)-N-(3-chlorobenzyl)-5-methyl-[1,2,4]triazolo[1,5-a]pyrimidin-2-amine]: the IC50 lay within 100 to 1000 nM.

On to `COc1ccc(CNc2nc3nc(C)cc(C(C)C)n3n2)cc1` [Example 10, 7-Isopropyl-N-(4-methoxybenzyl)-5-methyl-[1,2,4]triazolo[1,5-a]pyrimidin-2-amine], for which the IC50 is 1000 to 10000 nM.

Turning to `CCC(C)c1cc(C)nc2nc(NCc3ccc(OC)cc3)nn12` (stereo not drawn) [Example 11, 7-(sec-butyl)-N-(4-Methoxybenzyl)-5-methyl-[1,2,4]triazolo[1,5-a]pyrimidin-2-amine], the IC50 is 100 to 1000 nM.

As for `COc1ccc(CNc2nc3nc(C)cc(C4CCCO4)n3n2)cc1` (stereo not drawn) [Example 12, N-(4-Methoxybenzyl)-5-methyl-7-(tetrahydrofuran-2-yl)-[1,2,4]triazolo[1,5-a]pyrimidin-2-amine], the IC50 lay in the range of 1000 to 10000 nM.

`Cc1cc(C2CCOCC2)n2nc(NCc3cc(Cl)ccc3F)nc2n1` [Example 13, N-(5-Chloro-2-fluorobenzyl)-5-methyl-7-(tetrahydro-2H-pyran-4-yl)-[1,2,4]triazolo[1,5-a]pyrimidin-2-amine]: the “PDE2 (PIC50)” value is more than 7.

As for `Cc1cc(C2CCOCC2)n2nc(NCc3cc(F)cc(F)c3)nc2n1` [Example 14, N-[(3,5-Difluorophenyl)methyl]-5-methyl-7-(oxan-4-yl)-[1,2,4]triazolo[1,5-a]pyrimidin-2-amine], the IC50 is 100 to 1000 nM.

Take `COc1ccc(CNc2nc3nc(C)cc(C4CCOCC4)n3n2)c(F)c1` [Example 15, N-[(2-Fluoro-4-methoxyphenyl)methyl]-5-methyl-7-(oxan-4-yl)-[1,2,4]triazolo[1,5-a]pyrimidin-2-amine]: the “PDE2 (PIC50)” value was more than 7.

As to `Cc1cc(C2CCOCC2)n2nc(NCc3ccc4c(c3)OCCO4)nc2n1` [Example 16, N-(2,3-Dihydro-1,4-benzodioxin-6-ylmethyl)-5-methyl-7-(oxan-4-yl)-[1,2,4]triazolo[1,5-a]pyrimidin-2-amine], the IC50 fell in the range of 100 to 1000 nM.

For `Cc1cc(C2CCOCC2)n2nc(NCc3cnn(-c4ccccc4)c3)nc2n1` [Example 17, 5-Methyl-7-(oxan-4-yl)-N-[(1-phenyl-1H-pyrazol-4-yl)methyl]-[1,2,4]triazolo[1,5-a]pyrimidin-2-amine], the “PDE2 (PIC50)” value is reported as more than 7.

Take `COc1ccc(CNc2nc3nc(C)cc(C4CCN(C(C)=O)CC4)n3n2)cc1` [Example 18, 1-[4-(2-[(4-Methoxyphenyl)methyl]amino-5-methyl-[1,2,4]triazolo[1,5-a]pyrimidin-7-yl)piperidin-1-yl]ethan-1-one]: the IC50 lay within 100 to 1000 nM.

As to `COc1ccc(CNc2nc3nc(C)cc(C4CCN(C(C)=O)CC4)n3n2)cc1C(F)F` [Example 19, 1-{4-[2-({[3-(Difluoromethyl)-4-methoxyphenyl]methyl}amino)-5-methyl-[1,2,4]triazolo[1,5-a]pyrimidin-7-yl]piperidin-1-yl}ethan-1-one], the “PDE2 (PIC50)” value was more than 7.

As to `CC(=O)N1CCC(c2cc(C)nc3nc(NCc4cccc(C(F)F)c4)nn23)CC1` [Example 20, 1-{4-[2-({[3-(Difluoromethyl)phenyl]methyl}amino)-5-methyl-[1,2,4]triazolo[1,5-a]pyrimidin-7-yl]piperidin-1-yl}ethan-1-one], the “PDE2 (PIC50)” value was more than 7.

With `COc1ccc(CNc2nc3nc(C)cc(C4CCOCC4)n3n2)cc1Cl` [Example 21, N-[(3-Chloro-4-methoxyphenyl)methyl]-5-methyl-7-(oxan-4-yl)-[1,2,4]triazolo[1,5-a]pyrimidin-2-amine], the “PDE2 (PIC50)” value is given as more than 7.

With `COc1ccc(CNc2nc3nc(C)cc(C4CCC(F)(F)CC4)n3n2)cc1` [Example 22, 7-(4,4-Difluorocyclohexyl)-N-[(4-methoxyphenyl)methyl]-5-methyl-[1,2,4]triazolo[1,5-a]pyrimidin-2-amine], the IC50 was 100 to 1000 nM.

With `Cc1cc(C2CCOCC2)n2nc(NCc3cccc(C(F)F)c3)nc2n1` [Example 23, N-{[3-(Difluoromethyl)phenyl]methyl}-5-methyl-7-(oxan-4-yl)-[1,2,4]triazolo[1,5-a]pyrimidin-2-amine], the “PDE2 (PIC50)” value is reported as more than 7.

Turning to `COc1cccc(CNc2nc3nc(C)cc(C4CCOCC4)n3n2)c1` [Example 24, N-[(3-Methoxyphenyl)methyl]-5-methyl-7-(oxan-4-yl)-[1,2,4]triazolo[1,5-a]pyrimidin-2-amine], the IC50 was in the range of 100 to 1000 nM.

Take `COc1ccc(CNc2nc3nc(C)cc(C4CCOCC4)n3n2)cc1C(F)F` [Example 25, N-{[3-(Difluoromethyl)-4-methoxyphenyl]methyl}-5-methyl-7-(oxan-4-yl)-[1,2,4]triazolo[1,5-a]pyrimidin-2-amine]: the “PDE2 (PIC50)” value is listed as more than 7.

On to `Cc1cc(C2CCOCC2)n2nc(NCc3ccccc3F)nc2n1` [Example 26, N-[(2-Fluorophenyl)methyl]-5-methyl-7-(oxan-4-yl)-[1,2,4]triazolo[1,5-a]pyrimidin-2-amine], for which the IC50 lay within 100 to 1000 nM.

For `Cc1ccc(F)c(CNc2nc3nc(C)cc(C4CCOCC4)n3n2)c1` [Example 27, N-[(2-Fluoro-5-methylphenyl)methyl]-5-methyl-7-(oxan-4-yl)-[1,2,4]triazolo[1,5-a]pyrimidin-2-amine], the IC50 lay within 100 to 1000 nM.
